We go through one substance from patent US20150125452A1, “COMBINATION TREATMENTS COMPRISING C-MET ANTAGONISTS AND B-RAF ANTAGONISTS” (GENENTECH, INC., priority 2011, published 2015).

What all share (type): cell-based, Human
The subject of experiment [1] is BRAF mutant melanoma cell lines. As to the kind of experiment: Syto 60 cell viability, HGF rescue from PLX[…]. Particulars: additional twelve cell lines. On the procedure: Cells were treated twice weekly for the indicated times. […] Error bars represent mean+/−s.e.m.
(§1) Cell viability was assessed using the nucleic acid stain Syto 60 (Invitrogen). Cells (3000-5000 per well) were seeded into 96 well plates and allowed to adhere overnight. The next day, cells were treated with (or without) 50 ng/mL RTK ligand and concomitantly exposed to an increasing concentration range of the relevant kinase inhibitor. […] Cell viability was calculated by dividing the fluorescence obtained from the drug-treated cells by the fluorescence obtained from the control (no drug) treated cells.

Experiment [2] has as its system H3122 EML4-ALK translocated NSCLC cancer cell line. The experiment is described as follows: Cell viability assay with TAE684 or crizotinib and HGF. Particulars: TAE684, 50 ng/mL HGF, 72 h. On the procedure:
Error bars represent mean+/−s.e.m.
as §1

Experiment [3] concerns H2228 EML4-ALK translocated NSCLC cells. The experiment is described as follows: Syto 60 viability and long-term staining with TAE684 and HGF. The protocol: Cells were co-treated with 50 ng/mL HGF. Error bars represent mean+/−s.e.m. […] FIG. 8C, Syto 60 staining of H2228 EML4-ALK translocated NSCLC cells treated with TAE684 (2 μM) in the presence and absence of HGF (50 ng/mL) as indicated. Cells were treated every 3 days for 9 days. FIG. 8D, Syto 60 staining of H358 EGF-like ligand-driven NSCLC cells treated with Erlotinib (5 μM) in the presence and absence of HGF (50 ng/mL) as indicated. Cells were treated every 3 days for 9 days.
FIG. 16: Syto 60 staining of H2228 EML4-ALK translocated NSCLC cells treated with TAE684 (2 μM) in the presence or absence of HGF (50 ng/mL) as indicated. Cells were treated every 3 days for 9 days.
Cell viability was assessed using the nucleic acid stain Syto 60 (Invitrogen). Cells (3000-5000 per well) were seeded into 96 well plates and allowed to adhere overnight. The next day, cells were treated with (or without) 50 ng/mL RTK ligand and concomitantly exposed to an increasing concentration range of the relevant kinase inhibitor. Following 72 hours drug exposure, cells were fixed in 4% formaldehyde, stained with Syto 60 and cell number was assessed using an Odyssey scanner (Li-Cor). Cell viability was calculated by dividing the fluorescence obtained from the drug-treated cells by the fluorescence obtained from the control (no drug) treated cells.

The subject of experiment [4] is AKT and ERK phosphorylation. The experiment is described as follows: Immunoblots of survival pathway re-activation. On the procedure: FIGS. 2A-2C: pro-survival pathway re-activation correlated with RTK ligand rescue. FIG. 2A, Immunoblots showing the effect of acute RTK ligand treatment (50 ng/mL) on AKT and ERK phosphorylation following kinase inhibition (1 μM, 2 h). RTK ligand rescue is indicated, grey squares indicates complete rescue and black squares indicates partial rescue as determined by the initial screen (FIG. 1B). […] Cells were co-treated with 50 ng/mL RTK ligand in the presence of the appropriate secondary kinase inhibitor (0.5 μM) as indicated. […] Error bars represent mean+/−s.e.m. FIG. 2C, Immunoblots showing the effect of acute kinase inhibition (1 μM) in the presence and absence of RTK ligands (50 ng/mL, 2 h) on AKT and ERK phosphorylation. Cells were co-treated with secondary kinase inhibitor (0.5 μM) as appropriate.
Cell lysates were harvested using Nonidet-P40 lysis buffer, supplemented with Halt protease and phosphatase inhibitor cocktail (Thermo Scientific) and immunodetection of proteins was carried out using standard protocols. The phospho-HER2 (Y1248; #2247), HER2 (#2242), phospho-HER3 (Y1289; #4791), phospho-MET (Y1234/5; #3126), PDGFRα (#5241), phospho-FRS2α (Y196; #3864), IGF-1Rβ (#3027), phospho-ALK (Y1604; #3341), AKT (#9272), phospho-ERK (T202/Y204; #9101), ERK (#9102), GAPDH (#2118) and β-Tubulin (#2146) antibodies were purchased from Cell Signaling Technologies. Antibodies to HER3 (SC-285), MET (SC-10), phospho-PDGFRα (SC-12911), FRS2α (SC-8318), FGFR1 (SC-7945), FGFR2 (SC-122), FGFR3 (SC-13121) and ALK (SC-25447) were purchased from Santa Cruz Biotechnologies. Phospho-AKT (S473; #44-621G) antibody was purchased from Invitrogen. Phospho-EGFR (Y1068; ab5644) antibody was purchased from Abeam. EGFR (#610017) antibody was purchased from BD Biosciences. PARP (#14-6666-92) antibody was purchased from eBioscience. Densitometry was carried out using ImageJ software.

Experiment [5] relates to SK-MEL-28 cells. The experiment is described as follows: Secreted factor screen, Cell Titer Glo. Particulars: 5 μM PLX[…], 50 ng/mL factor, 72 h, 446 factors. On the procedure:
[…] […] […] Error bars represent mean+/−s.e.m.
Following 72 h incubation, cell viability was determined using Cell Titer Glo (Promega).
On the technique in general: ATP-based viability assays read luminescence as a measure of living cells.

Entries after “also recorded” stand apart in the source; their conditions may differ.

On to “HGF: recombinant human RTK ligand (MET ligand) purchased from Peprotech”, for which the “number of additional BRAF mutant melanoma lines with HGF-attenuated PLX[…] sensitivity” value in experiment [1] is given as 5 of the 12. Further, the “rescue from ALK inhibition by HGF” value in experiment [2] is recorded as “efficiently rescued from ALK inhibition”. Besides, the “effect of HGF on longer-term TAE684 treatment” value in experiment [3] (TAE684 2 μM, HGF 50 ng/mL, every 3 days for 9 days) was “rescued; also recorded: prevented acquired resistance to TAE684”. Moreover, the “rescue from ALK inhibition by HGF at 72 hour time-point” value in experiment [3] (TAE684, HGF, 72 h) is reported as “not rescued from ALK inhibition”. Besides, the “PI3K/MAPK pathway re-activation by RTK ligand in presence of kinase inhibitor” value in experiment [4] (50 ng/mL ligand, kinase inhibitor 1 μM, 2 h) is “re-activated both PI3K and MAPK pathways”. Further, the “re-activation of PI3K and MAPK signalling in HER2 amplified cell lines” value in experiment [4] (AU565, HCC1954 (MET positive), BT474 (MET negative), lapatinib 1 μM, HGF 50 ng/mL, 2 h) is “re-activated PI3K and MAPK signalling pathways specifically in MET-positive, but not in MET-negative cells”. Further, the “persistence of redundant RTK activation and downstream survival signalling” value in experiment [4] (AU565 cells, lapatinib 1 μM and HGF 50 ng/mL) is “at least 48 hours”. In addition, the “re-activation of AKT and ERK activity in presence of TAE684” value in experiment [4] (H2228 cells) was “able to re-activate AKT and ERK activity”. Moreover, in experiment [4] (H3122 cells, TAE684 1 μM, HGF 50 ng/mL, 2 h), the “ERK and AKT activation in presence of TAE684” value is “promotes ERK and AKT activation”. Further, the “re-activation of MAPK signalling (pERK) in BRAF mutant cell lines” value in experiment [4] (PLX[…] 1 μM, HGF 50 ng/mL, 2 h, MET positive versus MET negative lines) is reported as “could re-activate MAPK signalling in cell lines that were rescued by HGF”. Moreover, in experiment [5], the “effect of secreted factor on PLX[…] sensitivity” value is “could attenuate PLX4032 sensitivity”.
